Ends that are not written are not given here.
Columns and labels:
[1] = tested on: HEK293 cells; test: LAMP1 and CD63 levels in HEK293 cells co-transfected with A53T a-syn and peptide; type: cell-based, human
Method: Infected or transfected cells were scraped from 6-well dishes and lysed with lysis buffer (50 mM Tris-HCl pH7.4, 1% Nonidet P-40, 150 mM NaCl, 1 mM EDTA, 1× protease inhibitor mixture (Sigma)) for 30 min at 4° C. The insoluble pellet was removed following a 10,000 rpm spin for 5 minutes at 4° C. Lysates were analyzed by SDS-PAGE/immunoblot using 4-20% Mini-PROTEAN Tris-glycine gels (Bio-Rad) transferred to PVDF membranes and blocked in 5% milk containing PBS-Tween-20 (0.1%) for 1 h. PVDF membranes were then incubated with specified primary antibodies followed by incubation with horseradish peroxidase-conjugated secondary antibodies (Santa Cruz Biotechnology) and detected using enhanced chemiluminescence (GE Healthcare).
(§1) After fixation, cells were permeabilized with 0.2% Triton X-100 for 15 min, washed 3 times with PBS and then incubated with blocking solution (1% BSA, 22.52 mg/mL glycine, 0.1% Tween-20 in PBS) for 1 h. Primary antibodies were diluted in blocking solution and incubated overnight at 4° C. Following three washes with PBS, cells were next incubated with fluorescent secondary antibodies diluted in blocking solution for 1 h at room temperature. Following another 3 PBS washes, nuclei were counterstained with DAPI (ThermoFisher) and then coverslips were mounted on slides using fluorescence mounting medium (DAKO) and sealed using clear nail varnish.

[2] = tested on: rat primary cortical neurons; test: Rat primary cortical neurons transduced with AAVs, immunofluorescence and immunoblot; type: cell-based
Method: Infected neurons were scraped from 6-well dishes and lysed with RIPA buffer containing protease inhibitor cocktail (Roche). The Triton X-100 soluble fraction was then separated from the insoluble pellet by centrifugation. Protein concentration was quantified using the DC protein assay (BioRad). For each condition, 20 μg of protein lysate was run on 4-15% acrylamide gels (BioRad) and subsequently transferred onto a polyvinylidene difluoride (PVDF) membrane. Blots were blocked with 5% skim milk in TBS+0.01% Tween-20 (TBS-T) for 1 h prior to incubation with primary antibody overnight at 4° C. Blots were subsequently washed 3 times in TBS-T for 10 minutes per wash, incubated in species specific secondary antibody for 1 h at 21° C., washed again, and then developed using ECL immunoblotting substrate (Pierce) and visualized on HyBlot CL autoradiographic film (Denville Scientific).
Pregnant rats (E17) of the Sprague-Dawley strain were purchased from Envigo. Embryos were surgically removed from the mothers and cortices dissected in Hanks Balanced salt solution (Gibco). The meninges were removed, and cells were dissociated using a papain dissociation system (Worthington) before being resuspended in Neurobasal medium A supplemented with antibiotic-antimycotic solution (Gibco), L-glutamine substitute (GlutaMAX™; Gibco) and factor B27 (Gibco). Cells were plated on poly-D-lysine coated glass coverslips at a density of 5×10^5 cells/well, or on poly-D-lysine coated 6-well cell culture plates at a density of 2×10^6 cells/well, and incubated at 37° C. in 5% CO2 with half media changes every 3 days. Cells were transduced with AAVs 2 days post-isolation at a multiplicity of infection (MOI) of 3000. Media containing AAV vectors were removed after 72 h and cells were fixed with 4% PFA for immunofluorescence staining or lysed for immunoblotting at 8 days post-isolation.
as §1
Confocal images of primary cortical neurons, dopaminergic neurons, and LAMP1 staining within the SN were processed using Imaris software (Oxford instruments). Z stacks were projected to give a 3D reconstruction of the field of view and mean pixel intensity per GFP^+ cell (or RFP^+ cell for V1S/SV2 experiments) was calculated for a-syn or LAMP1 signal using the software's surfaces module. For LAMP1 staining within the SN, the number of LAMP1^+ puncta within GFP^+ cells was calculated for each field of view; 3 fields of view were imaged/animal.

[3] = target: T1, CHMP2B-VPS4 interaction (Homo sapiens, UniProt Q9UQN3); test: Co-immunoprecipitation: disruption of VPS4B-CHMP2B interaction; type: cell-based; details: Flag-VPS4B, HA-tagged CHMP proteins, GFP-tagged peptides
T1 construct: expressed in transfected cells; host or cells: HEK293T
T1 sequence (Q9UQN3 whole entry): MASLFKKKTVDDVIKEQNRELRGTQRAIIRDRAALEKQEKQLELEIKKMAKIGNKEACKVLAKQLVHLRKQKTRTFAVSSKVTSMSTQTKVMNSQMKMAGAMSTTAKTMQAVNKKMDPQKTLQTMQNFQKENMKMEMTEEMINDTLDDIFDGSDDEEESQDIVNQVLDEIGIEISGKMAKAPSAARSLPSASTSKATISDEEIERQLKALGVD
Method: HEK293T cells were co-transfected with Flag-tagged target protein, HA-tagged source protein, and GFP-tagged peptide or GFP. Cells were lysed 48 h after transfections with radioimmune precipitation assay buffer (50 mM Tris-HCl pH7.4, 1% Nonidet P-40, 150 mM NaCl, 1 mM EDTA, 10 mM Na3VO4, 10 mM sodium pyrophosphate, 25 mM NaF, 1× protease inhibitor mixture (Sigma)) for 30 min at 4° C. and coimmunoprecipitated with Flag beads (Clontech). The resulting immunocomplexes were analyzed by immunoblot using the appropriate antibodies. Protein samples were separated using 4-20% Mini-PROTEAN Tris-glycine gels (Bio-Rad) transferred to PVDF membranes and blocked in 5% milk containing PBS-Tween-20 (0.1%) for 1 h. PVDF membranes were then incubated with specified primary antibodies followed by incubation with horseradish peroxidase-conjugated secondary antibodies (Santa Cruz Biotechnology) and detected using enhanced chemiluminescence (GE Healthcare).

[4] = tested on: SNCA triplication fibroblasts; test: SNCA triplication fibroblasts from a PD patient transduced with AAV peptides; type: cell-based, human
Method: HEK293T cells, tet-off split luciferase a-syn cells, tet-off parent cells and SH-SY5Y cell lines were maintained in DMEM (ATCC) supplemented with 10% FBS and 1% pen/strep/glutamine, and the appropriate selection antibiotics when required. tet-off split luciferase a-syn cells and tet-off parent cells were kept with doxycycline at 1 ng/mL for inhibition of gene expression. SNCA triplication fibroblasts were obtained from NINDS (National Institute of Neurological Disorders and Stroke) and maintained in DMEM supplemented with 10% FBS and 1% pen/strep/glutamine. HA antibodies were obtained from Santa Cruz (7392) and Flag antibodies were purchased from Sigma (A8592). GFP antibodies were purchased from Abcam (ab290).
The Lysosome Intracellular Activity Assay kit was purchased from Abcam and used per manufacturer's instructions (ab234622). […] For HEK293 cells, cells were re-suspended in PBS containing DMSO or Leupeptin and analyzed by FACS. […]
After fixation, cells were permeabilized with 0.2% Triton X-100 for 15 min, washed 3 times with PBS and then incubated with blocking solution (1% BSA, 22.52 mg/mL glycine, 0.1% Tween-20 in PBS) for 1 h. […] Following another 3 PBS washes, nuclei were counterstained with DAPI (ThermoFisher) and then coverslips were mounted on slides using fluorescence mounting medium (DAKO) and sealed using clear nail varnish.

Sequence: DEEIERQLKALG [PDpep1.3]
- CD63 levels (MVB marker) ([1]; HEK293 cells expressing A53T a-syn): return of CD63
- LAMP1 levels ([1]; HEK293 cells overexpressing A53T a-syn): restored
- total a-syn fluorescence ([2]; neurons with V1S and SV2 or V1S alone (WT a-syn), RFP-tagged peptide vs Scramble1.3): significant lowering
- LAMP1 levels ([2]; rat cortical neurons expressing human A53T a-syn): restored LAMP1 levels
- YFP fluorescence from co-expressed V1S and SV2 (a-syn oligomers) ([2]; rat primary cortical neurons): reduced YFP fluorescence
- endogenous a-syn fluorescence intensity ([2]; rat primary cortical neurons): reduced fluorescence intensity
- total A53T a-syn protein levels by immunoblotting of neuronal lysates ([2]; rat primary cortical neurons): reduction
- A53T a-syn fluorescence intensity ([2]; rat primary cortical neurons, AAV A53T a-syn plus GFP-tagged peptide, vs Scramble1.3): significant decrease
- fluorescence of YFP alone ([2]; rat primary cortical neurons, control): no effect
- levels of truncated A53T a-syn lacking amino acids 103-140 (HA immunostaining) ([2]; rat primary cortical neurons, vs Scramble1.3): did not reduce
- effect on CHMP2B-VPS4 interaction (co-immunoprecipitation) [3]: disrupted the interaction between VPS4B and CHMP2B
- effect on CHMP2B-VPS4 interaction (co-immunoprecipitation) ([3]; listed as Pdpep1.3): inhibits the CHMP2B-VPS4 interaction
- lysosomal activity (lysosomal flux assay) [4]: increased lysosomal activity
- a-syn fluorescence ([4]; RFP-tagged peptides, vs Scramble1.3): reduced a-syn fluorescence
